Experiment: xn = mol fraction of the nth substance listed
Details: 101 kPa

CC(O)C(C)O (configuration not stated) + CCCC[N+](C)(C)C.O=S(=O)([N-]S(=O)(=O)C(F)(F)F)C(F)(F)F
viscosity (323.15 K, x1 = 0.0879): 28.8 mPa·s
viscosity (323.15 K, x1 = 0.3137): 20.9 mPa·s
viscosity (323.15 K, x1 = 0.4515): 18.2 mPa·s
viscosity (323.15 K, x1 = 0.8142): 15.29 mPa·s
viscosity (323.15 K, x1 = 1): 17 mPa·s
viscosity (328.15 K, x1 = 0.0879): 24.4 mPa·s
viscosity (328.15 K, x1 = 0.3137): 17.7 mPa·s
viscosity (328.15 K, x1 = 0.4515): 15.32 mPa·s
viscosity (328.15 K, x1 = 0.6216): 13.26 mPa·s
viscosity (328.15 K, x1 = 0.8142): 12.34 mPa·s
viscosity (328.15 K, x1 = 1): 13.13 mPa·s
viscosity (333.15 K, x1 = 0.0879): 20.9 mPa·s
viscosity (333.15 K, x1 = 0.6216): 11.09 mPa·s
viscosity (333.15 K, x1 = 0.8142): 10.19 mPa·s
viscosity (333.15 K, x1 = 1): 10.34 mPa·s
viscosity (338.15 K, x1 = 0.0879): 18.1 mPa·s
viscosity (338.15 K, x1 = 0.3137): 13.22 mPa·s
viscosity (338.15 K, x1 = 0.4515): 11.32 mPa·s
viscosity (338.15 K, x1 = 0.557): 10 mPa·s
viscosity (338.15 K, x1 = 0.6216): 9.39 mPa·s
viscosity (338.15 K, x1 = 0.8142): 8.53 mPa·s
viscosity (338.15 K, x1 = 1): 8.27 mPa·s
viscosity (343.15 K, x1 = 0.0879): 15.83 mPa·s
viscosity (343.15 K, x1 = 0.3137): 11.16 mPa·s
viscosity (343.15 K, x1 = 0.4515): 9.89 mPa·s
viscosity (343.15 K, x1 = 0.557): 8.68 mPa·s
viscosity (343.15 K, x1 = 0.6216): 8.03 mPa·s
viscosity (343.15 K, x1 = 0.8142): 7.33 mPa·s

CC(O)CO (configuration not stated) + CCCC[N+](C)(C)C.O=S(=O)([N-]S(=O)(=O)C(F)(F)F)C(F)(F)F
viscosity (323.15 K, x1 = 1): 12.2 mPa·s
viscosity (328.15 K, x1 = 1): 9.85 mPa·s
viscosity (333.15 K, x1 = 1): 8 mPa·s
viscosity (338.15 K, x1 = 1): 6.41 mPa·s
viscosity (343.15 K, x1 = 1): 5.27 mPa·s
viscosity (348.15 K, x1 = 1): 4.54 mPa·s

CCC(O)CO (configuration not stated) + CCCC[N+](C)(C)C.O=S(=O)([N-]S(=O)(=O)C(F)(F)F)C(F)(F)F
viscosity (323.15 K, x1 = 1): 12.85 mPa·s
viscosity (333.15 K, x1 = 1): 8.33 mPa·s
viscosity (338.15 K, x1 = 1): 6.83 mPa·s
viscosity (343.15 K, x1 = 1): 5.65 mPa·s
viscosity (348.15 K, x1 = 1): 4.75 mPa·s
viscosity (353.15 K, x1 = 1): 4.03 mPa·s

CC(O)CO (configuration not stated) + C[N+](C)(C)CCO.O=S(=O)([N-]S(=O)(=O)C(F)(F)F)C(F)(F)F
viscosity (313.15 K, x1 = 1): 19.1 mPa·s
viscosity (318.15 K, x1 = 1): 15.17 mPa·s
viscosity (323.15 K, x1 = 1): 12.2 mPa·s
viscosity (328.15 K, x1 = 1): 9.85 mPa·s
viscosity (333.15 K, x1 = 1): 8 mPa·s
viscosity (338.15 K, x1 = 1): 6.4 mPa·s
viscosity (343.15 K, x1 = 1): 5.27 mPa·s
viscosity (348.15 K, x1 = 1): 4.5 mPa·s
viscosity (353.15 K, x1 = 1): 3.78 mPa·s

OCCCCCO + C[N+](C)(C)CCO.O=S(=O)([N-]S(=O)(=O)C(F)(F)F)C(F)(F)F
viscosity (313.15 K, x1 = 1): 45.6 mPa·s
viscosity (318.15 K, x1 = 1): 36.9 mPa·s
viscosity (323.15 K, x1 = 1): 29.8 mPa·s
viscosity (328.15 K, x1 = 1): 24.5 mPa·s
viscosity (338.15 K, x1 = 1): 16.84 mPa·s
viscosity (343.15 K, x1 = 1): 14.44 mPa·s

OCCCO + C[N+](C)(C)CCO.O=S(=O)([N-]S(=O)(=O)C(F)(F)F)C(F)(F)F
viscosity (313.15 K, x1 = 1): 20.3 mPa·s
viscosity (318.15 K, x1 = 1): 16.88 mPa·s
viscosity (323.15 K, x1 = 1): 14.16 mPa·s
viscosity (328.15 K, x1 = 1): 12.01 mPa·s
viscosity (333.15 K, x1 = 1): 10.24 mPa·s
viscosity (343.15 K, x1 = 1): 7.47 mPa·s
viscosity (348.15 K, x1 = 1): 6.62 mPa·s
viscosity (353.15 K, x1 = 1): 5.8 mPa·s

C[N+](C)(C)CCO.O=S(=O)([N-]S(=O)(=O)C(F)(F)F)C(F)(F)F + OCCCCCO
viscosity (313.15 K, x2 = 0): 56.4 mPa·s
viscosity (313.15 K, x2 = 0.1351): 49.5 mPa·s
viscosity (313.15 K, x2 = 0.2149): 45.2 mPa·s
viscosity (313.15 K, x2 = 0.4145): 38.4 mPa·s
viscosity (313.15 K, x2 = 0.5087): 37 mPa·s
viscosity (313.15 K, x2 = 0.6847): 36.8 mPa·s
viscosity (313.15 K, x2 = 0.7858): 37.8 mPa·s
viscosity (313.15 K, x2 = 0.9071): 40.8 mPa·s
viscosity (318.15 K, x2 = 0): 46.8 mPa·s
viscosity (318.15 K, x2 = 0.1351): 40.8 mPa·s
viscosity (318.15 K, x2 = 0.4145): 31.4 mPa·s
viscosity (318.15 K, x2 = 0.5087): 30.2 mPa·s
viscosity (318.15 K, x2 = 0.6847): 29.7 mPa·s
viscosity (318.15 K, x2 = 0.7858): 30.3 mPa·s
viscosity (318.15 K, x2 = 0.9071): 32.9 mPa·s
viscosity (323.15 K, x2 = 0.1351): 34.2 mPa·s
viscosity (323.15 K, x2 = 0.4145): 26.1 mPa·s
viscosity (323.15 K, x2 = 0.5087): 24.9 mPa·s
viscosity (323.15 K, x2 = 0.6847): 24.3 mPa·s
viscosity (323.15 K, x2 = 0.7858): 24.7 mPa·s
viscosity (323.15 K, x2 = 0.9071): 26.8 mPa·s
viscosity (328.15 K, x2 = 0): 33.4 mPa·s
viscosity (328.15 K, x2 = 0.1351): 28.9 mPa·s
viscosity (328.15 K, x2 = 0.4145): 22 mPa·s
viscosity (328.15 K, x2 = 0.5087): 20.9 mPa·s
viscosity (328.15 K, x2 = 0.6847): 20.2 mPa·s
viscosity (328.15 K, x2 = 0.7858): 20.2 mPa·s
viscosity (328.15 K, x2 = 0.9071): 22 mPa·s
viscosity (333.15 K, x2 = 0): 28.6 mPa·s
viscosity (333.15 K, x2 = 0.1351): 24.7 mPa·s
viscosity (333.15 K, x2 = 0.4145): 18.7 mPa·s
viscosity (333.15 K, x2 = 0.5087): 17.7 mPa·s
viscosity (333.15 K, x2 = 0.6847): 17 mPa·s
viscosity (333.15 K, x2 = 0.7858): 16.86 mPa·s
viscosity (333.15 K, x2 = 0.9071): 18.3 mPa·s
viscosity (338.15 K, x2 = 0): 24.6 mPa·s
viscosity (338.15 K, x2 = 0.1351): 21.3 mPa·s
viscosity (338.15 K, x2 = 0.2149): 19.5 mPa·s
viscosity (338.15 K, x2 = 0.5087): 15.17 mPa·s
viscosity (338.15 K, x2 = 0.6847): 14.44 mPa·s
viscosity (338.15 K, x2 = 0.7858): 14.12 mPa·s
viscosity (338.15 K, x2 = 0.9071): 15.4 mPa·s
viscosity (343.15 K, x2 = 0): 21.6 mPa·s
viscosity (343.15 K, x2 = 0.1351): 18.6 mPa·s
viscosity (343.15 K, x2 = 0.2149): 17 mPa·s
viscosity (343.15 K, x2 = 0.4145): 13.98 mPa·s
viscosity (343.15 K, x2 = 0.5087): 13.08 mPa·s
viscosity (343.15 K, x2 = 0.7858): 11.92 mPa·s
viscosity (343.15 K, x2 = 0.9071): 12.99 mPa·s

C[N+](C)(C)CCO.O=S(=O)([N-]S(=O)(=O)C(F)(F)F)C(F)(F)F + OCCCO
viscosity (313.15 K, x2 = 0): 56.4 mPa·s
viscosity (313.15 K, x2 = 0.2297): 39.8 mPa·s
viscosity (313.15 K, x2 = 0.6946): 22.2 mPa·s
viscosity (313.15 K, x2 = 0.8367): 20.4 mPa·s
viscosity (313.15 K, x2 = 0.9474): 19.5 mPa·s
viscosity (318.15 K, x2 = 0.1272): 39.1 mPa·s
viscosity (318.15 K, x2 = 0.2297): 33.1 mPa·s
viscosity (318.15 K, x2 = 0.4106): 25.1 mPa·s
viscosity (318.15 K, x2 = 0.5712): 20.8 mPa·s
viscosity (318.15 K, x2 = 0.6946): 18.4 mPa·s
viscosity (318.15 K, x2 = 0.8367): 16.91 mPa·s
viscosity (318.15 K, x2 = 0.9474): 16.22 mPa·s
viscosity (323.15 K, x2 = 0): 39.3 mPa·s
viscosity (323.15 K, x2 = 0.1272): 32.8 mPa·s
viscosity (323.15 K, x2 = 0.2297): 27.9 mPa·s
viscosity (323.15 K, x2 = 0.4106): 21.2 mPa·s
viscosity (323.15 K, x2 = 0.5712): 17.5 mPa·s
viscosity (323.15 K, x2 = 0.6946): 15.47 mPa·s
viscosity (323.15 K, x2 = 0.9474): 13.62 mPa·s
viscosity (328.15 K, x2 = 0.1272): 27.9 mPa·s
viscosity (328.15 K, x2 = 0.2297): 23.8 mPa·s
viscosity (328.15 K, x2 = 0.4106): 18.1 mPa·s
viscosity (328.15 K, x2 = 0.5712): 14.95 mPa·s
viscosity (328.15 K, x2 = 0.6946): 13.14 mPa·s
viscosity (328.15 K, x2 = 0.9474): 11.54 mPa·s
viscosity (333.15 K, x2 = 0): 28.6 mPa·s
viscosity (333.15 K, x2 = 0.4106): 15.6 mPa·s
viscosity (333.15 K, x2 = 0.5712): 12.87 mPa·s
viscosity (333.15 K, x2 = 0.8367): 10.27 mPa·s
viscosity (333.15 K, x2 = 0.9474): 9.86 mPa·s
viscosity (338.15 K, x2 = 0): 24.6 mPa·s
viscosity (338.15 K, x2 = 0.1272): 20.8 mPa·s
viscosity (338.15 K, x2 = 0.4106): 13.62 mPa·s
viscosity (338.15 K, x2 = 0.5712): 11.18 mPa·s
viscosity (338.15 K, x2 = 0.8367): 8.86 mPa·s
viscosity (343.15 K, x2 = 0): 21.6 mPa·s
viscosity (343.15 K, x2 = 0.1272): 18.1 mPa·s
viscosity (343.15 K, x2 = 0.4106): 11.96 mPa·s
viscosity (343.15 K, x2 = 0.5712): 9.79 mPa·s
viscosity (343.15 K, x2 = 0.6946): 8.51 mPa·s
viscosity (343.15 K, x2 = 0.8367): 7.74 mPa·s
viscosity (343.15 K, x2 = 0.9474): 7.36 mPa·s
viscosity (348.15 K, x2 = 0.1272): 16 mPa·s
viscosity (348.15 K, x2 = 0.2297): 13.8 mPa·s
viscosity (348.15 K, x2 = 0.4106): 10.58 mPa·s
viscosity (348.15 K, x2 = 0.6946): 7.46 mPa·s
viscosity (348.15 K, x2 = 0.8367): 6.78 mPa·s
viscosity (348.15 K, x2 = 0.9474): 6.39 mPa·s
viscosity (353.15 K, x2 = 0): 16.9 mPa·s
viscosity (353.15 K, x2 = 0.1272): 14.19 mPa·s
viscosity (353.15 K, x2 = 0.2297): 12.29 mPa·s
viscosity (353.15 K, x2 = 0.4106): 9.49 mPa·s
viscosity (353.15 K, x2 = 0.5712): 7.65 mPa·s
viscosity (353.15 K, x2 = 0.6946): 6.58 mPa·s
viscosity (353.15 K, x2 = 0.9474): 5.57 mPa·s
